From ChEMBL document CHEMBL1201862, “PubChem BioAssay data set” (2004)
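Five concentrations, 48 hours, 96-well plates. GI50 = concentration required for 50% inhibition of growth.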 Calls of active or inactive are those of the source. Cut-off read from the data, not from the text of the source: active = GI50 up to about 1.1 µM and inactive = higher.

What was measured:
Experiment in all cases: NCI-60 cell line screen, 48 h
HOP-18 = test system: HOP-18
XF498 = test system: XF498
KM-20L2 = test system: KM-20L2
DMS-114 = test system: DMS-114
DMS-273 = test system: DMS-273
DLD-1 = test system: DLD-1
M19-MEL = test system: M19-MEL
SNB-78 = test system: SNB-78
RXF 631 = test system: RXF 631

Row | SMILES | GI50 (HOP-18) | GI50 (XF498) | GI50 (KM-20L2) | GI50 (DMS-114) | GI50 (DMS-273) | GI50 (DLD-1) | GI50 (M19-MEL) | GI50 (SNB-78) | GI50 (RXF 631)
1 | COc1cc(C(=O)c2cocc2C(=O)c2ccc3c(c2)OCO3)cc(OC)c1OC | > 51.1 µM (inactive) | 1.34 µM (inactive) | 0.596 µM (active) | 0.753 µM (active) | 0.729 µM (active) | 0.867 µM (active) | 2.96 µM (inactive) | – | –
2 | C[n+]1cn(CC(=O)c2ccccc2)c(C(N)=O)c1N | > 100 µM (inactive) | – | > 100 µM (inactive) | 25 µM (inactive) | > 100 µM (inactive) | > 100 µM (inactive) | 25.2 µM (inactive) | > 100 µM (inactive) | > 100 µM (inactive)
3 | O/N=C1\C(=C\c2ccc3c(c2)OCCO3)CCCC1C(NO)c1ccc2c(c1)OCCO2 (stereo not given) | 43.4 µM (inactive) | – | 19 µM (inactive) | 20.1 µM (inactive) | 19.2 µM (inactive) | 31.6 µM (inactive) | 24.9 µM (inactive) | 33.9 µM (inactive) | 32.9 µM (inactive)
4 | O=c1[nH]c(=O)n(C2CC(O)C(CO)O2)cc1C#Cc1c(F)c(F)c(F)c(F)c1F (stereo not given) | – | – | > 100 µM (inactive) | > 100 µM (inactive) | > 100 µM (inactive) | > 100 µM (inactive) | > 100 µM (inactive) | – | –
5 | COc1nc2c(OC)cccc2c(OC)c1C=O | > 100 µM (inactive) | 18.8 µM (inactive) | > 100 µM (inactive) | > 100 µM (inactive) | > 100 µM (inactive) | – | > 100 µM (inactive) | – | –
6 | CN(C)C=C1C(Cl)=C(C=O)CC(C=O)=C1Cl | 13.3 µM (inactive) | – | 19.5 µM (inactive) | 11.2 µM (inactive) | 11 µM (inactive) | 5.71 µM (inactive) | 11.4 µM (inactive) | – | –
7 | Cc1ccc(C)c(N2C(=O)C(=O)C(c3nc4ccccc4s3)/C(=N/N)C2=O)c1 (stereo not given) | – | > 100 µM (inactive) | > 100 µM (inactive) | > 100 µM (inactive) | > 100 µM (inactive) | > 100 µM (inactive) | > 20.2 µM (inactive) | > 100 µM (inactive) | –
8 | O=C(O)Cc1ccc2c(c1O)C(=O)c1c(ccc(CC(=O)O)c1O)C2=O | > 100 µM (inactive) | > 100 µM (inactive) | > 100 µM (inactive) | > 100 µM (inactive) | > 100 µM (inactive) | > 100 µM (inactive) | > 100 µM (inactive) | > 100 µM (inactive) | –
9 | CCN(CC)c1ccc(/N=N/c2ccc(-c3nc4cccnc4o3)cc2)cc1 | – | > 100 µM (inactive) | > 100 µM (inactive) | > 100 µM (inactive) | > 100 µM (inactive) | 60.3 µM (inactive) | > 100 µM (inactive) | > 100 µM (inactive) | –
10 | COC(=O)C12C3C=CC(O3)C1C1C=CC2O1 (stereo not given) | > 100 µM (inactive) | > 100 µM (inactive) | > 100 µM (inactive) | – | > 100 µM (inactive) | > 100 µM (inactive) | > 100 µM (inactive) | – | –
11 | COC(=O)/C(=N/O)C(C(=O)C=C(C)C)C(=O)C(=O)Nc1nc2ccc([N+](=O)[O-])cc2s1 (stereo not given) | – | 58.7 µM (inactive) | 80.2 µM (inactive) | – | 45.4 µM (inactive) | – | > 100 µM (inactive) | 27.7 µM (inactive) | –
12 | O=c1[nH]c(=O)n(C2OC(CO)C(O)C(O)C2O)cc1F (stereo not given) | > 100 µM (inactive) | > 100 µM (inactive) | > 100 µM (inactive) | > 100 µM (inactive) | – | > 100 µM (inactive) | > 100 µM (inactive) | > 100 µM (inactive) | –
13 | Cc1cc(NS(=O)(=O)c2ccc(Nc3c4ccccc4nc4c(C(=O)Nc5ccc(S(=O)(=O)N=C(N)N)cc5)cccc34)cc2)no1 | > 100 µM (inactive) | > 100 µM (inactive) | > 100 µM (inactive) | > 100 µM (inactive) | > 100 µM (inactive) | > 100 µM (inactive) | > 100 µM (inactive) | > 100 µM (inactive) | > 100 µM (inactive)
14 | Cc1c(OCCCOc2ccc3c(=O)cc(-c4ccccc4)oc3c2C)ccc2c(=O)cc(-c3ccccc3)oc12 | > 100 µM (inactive) | > 100 µM (inactive) | > 100 µM (inactive) | > 100 µM (inactive) | > 100 µM (inactive) | > 100 µM (inactive) | > 100 µM (inactive) | 51.2 µM (inactive) | –
15 | Cc1ccccc1C(=O)c1cc(O)ccc1O | > 100 µM (inactive) | > 100 µM (inactive) | 32.6 µM (inactive) | 45.7 µM (inactive) | 42.3 µM (inactive) | 55.7 µM (inactive) | > 100 µM (inactive) | > 100 µM (inactive) | > 100 µM (inactive)
16 | CN(C)C(=S)/N=c1\ss/c(=N\C(=S)N(C)C)n1-c1cccc(Cl)c1 | – | – | > 100 µM (inactive) | > 100 µM (inactive) | > 100 µM (inactive) | – | – | > 100 µM (inactive) | –

Row | SMILES | GI50 (HOP-18) | GI50 (XF498) | GI50 (KM-20L2) | GI50 (DMS-114) | GI50 (DMS-273) | GI50 (DLD-1) | GI50 (M19-MEL) | GI50 (SNB-78) | GI50 (RXF 631)
17 | CC1=Nc2c(O)nc(S)nc2NC(c2ccc(Cl)c(Cl)c2)C1 (stereo not given) | > 89.1 µM (inactive) | > 65.8 µM (inactive) | 25.6 µM (inactive) | 35.6 µM (inactive) | 26.1 µM (inactive) | 31.6 µM (inactive) | 18.5 µM (inactive) | 60.4 µM (inactive) | –
18 | Cc1ccc(S(=O)(=O)O/N=C2\CCC\C2=C/c2ccccc2)cc1 | 20.3 µM (inactive) | 18.5 µM (inactive) | 22.1 µM (inactive) | – | 32.8 µM (inactive) | 19.1 µM (inactive) | 20.1 µM (inactive) | 1.31 µM (inactive) | 16.9 µM (inactive)
19 | Cn1cc2ccccc2c1-c1nc(F)nc(F)n1 | – | 23.9 µM (inactive) | > 100 µM (inactive) | > 100 µM (inactive) | > 100 µM (inactive) | > 100 µM (inactive) | > 100 µM (inactive) | > 100 µM (inactive) | –
20 | O=C(C#Cc1ccccc1)N1c2ccccc2CC1c1c[nH]c2ccccc12 (stereo not given) | – | – | 21.9 µM (inactive) | 12.7 µM (inactive) | 12.7 µM (inactive) | 2.07 µM (inactive) | 16.1 µM (inactive) | 13 µM (inactive) | 14.3 µM (inactive)
21 | COc1ccc2c3c([nH]c(=O)c2c1C(=O)O)-c1ccccc1CC3 | – | > 100 µM (inactive) | > 100 µM (inactive) | > 100 µM (inactive) | > 100 µM (inactive) | > 100 µM (inactive) | – | 79.1 µM (inactive) | > 100 µM (inactive)
22 | OCC1CC2CC1C1(C2)OCCO1 (stereo not given) | > 100 µM (inactive) | > 100 µM (inactive) | > 100 µM (inactive) | > 100 µM (inactive) | > 100 µM (inactive) | > 100 µM (inactive) | > 100 µM (inactive) | > 100 µM (inactive) | > 100 µM (inactive)
23 | O=C1Nc2cccc3ncn(c23)C2=C1CCCC2 | 4.98 µM (inactive) | – | > 100 µM (inactive) | > 100 µM (inactive) | > 100 µM (inactive) | > 100 µM (inactive) | > 100 µM (inactive) | > 100 µM (inactive) | –
24 | CCC1(Br)C(=O)NC(=O)N(C2CC(O)C(CO)O2)C1N=[N+]=[N-] (stereo not given) | – | > 100 µM (inactive) | > 100 µM (inactive) | 72.1 µM (inactive) | > 100 µM (inactive) | > 100 µM (inactive) | > 100 µM (inactive) | > 100 µM (inactive) | –
25 | O=Cc1[nH]c2ccccc2c1Br | 27.7 µM (inactive) | 30.1 µM (inactive) | 22.2 µM (inactive) | 18.5 µM (inactive) | 17.8 µM (inactive) | 22.6 µM (inactive) | 22.1 µM (inactive) | 15.8 µM (inactive) | 20 µM (inactive)
26 | OCC(O)C(O)c1nn(-c2ccccc2)c2nc3cc(Cl)c(Cl)cc3nc12 (stereo not given) | 26.7 µM (inactive) | 28.5 µM (inactive) | 26.7 µM (inactive) | 21 µM (inactive) | 15.7 µM (inactive) | 26.1 µM (inactive) | 28.8 µM (inactive) | 50.2 µM (inactive) | 18.9 µM (inactive)
27 | CC[P+]1(CC)CCCC1 | > 100 µM (inactive) | > 100 µM (inactive) | > 100 µM (inactive) | > 100 µM (inactive) | > 100 µM (inactive) | > 100 µM (inactive) | > 100 µM (inactive) | > 100 µM (inactive) | –
28 | NC(=O)C(=Cc1ccc(C(O)P(=O)(O)O)cc1)C(N)=O (stereo not given) | > 100 µM (inactive) | > 100 µM (inactive) | > 100 µM (inactive) | > 100 µM (inactive) | > 100 µM (inactive) | > 100 µM (inactive) | > 100 µM (inactive) | > 100 µM (inactive) | > 100 µM (inactive)
29 | CCC1(CN(C)C)CC/C(=C\c2ccc(OC)cc2)C1=O (stereo not given) | > 100 µM (inactive) | – | > 100 µM (inactive) | 54.1 µM (inactive) | > 100 µM (inactive) | 58.3 µM (inactive) | > 100 µM (inactive) | > 100 µM (inactive) | 62.7 µM (inactive)
30 | COC1CC(O[C@H]2CC[C@@]3(C)C(=CCC4(O)C3CCC35C(=O)OC6(C)O[C@@]43CCC65)C2)OC(C)C1O (stereo not given in full) | > 100 µM (inactive) | > 100 µM (inactive) | > 100 µM (inactive) | > 100 µM (inactive) | > 100 µM (inactive) | > 100 µM (inactive) | > 100 µM (inactive) | > 100 µM (inactive) | –
31 | C[C@@H](C1CCC2C3C(=CC(=O)[C@@]21C)[C@H](C)[C@]1(CCC(=O)O1)C1OC31)[C@H]1C[C@]2(C)O[C@@](C)(O1)OC2(C)C (stereo not given in full) | > 100 µM (inactive) | > 100 µM (inactive) | > 100 µM (inactive) | > 100 µM (inactive) | > 100 µM (inactive) | > 100 µM (inactive) | > 100 µM (inactive) | – | > 100 µM (inactive)
32 | C/N=C(\S)N/N=C/C(C)=N/N/C(S)=N/C | > 100 µM (inactive) | – | 0.631 µM (active) | 0.0414 µM (active) | > 100 µM (inactive) | – | > 100 µM (inactive) | > 100 µM (inactive) | –
